Measurements published in ChEMBL document CHEMBL1641488, “Computational approach to the identification of novel Aurora-A inhibitors” (Bioorg Med Chem, 2011).

Experiments:
DU-145 [1] = experiment: Cytotoxicity against human DU145 cells after 4 hrs by MTT assay; format: functional; details: DU-145, 4 h
HT-29 [2] = experiment: Cytotoxicity against human HT-29 cells after 4 hrs by MTT assay; format: functional; details: HT-29, 4 h
DU-145 [3] = experiment: Cytotoxicity against human DU145 cells at 10 uM after 4 hrs by MTT assay; format: functional; details: DU-145, 4 h
HT-29 [4] = experiment: Cytotoxicity against human HT-29 cells at 10 uM after 4 hrs by MTT assay; format: functional; details: HT-29, 4 h
Aurora kinase A = target: T1, Aurora kinase A (Homo sapiens, UniProt O14965); experiment: Inhibition of human recombinant His-tagged Aurora A kinase expressed in insect cells
T1 sequence (O14965 whole entry): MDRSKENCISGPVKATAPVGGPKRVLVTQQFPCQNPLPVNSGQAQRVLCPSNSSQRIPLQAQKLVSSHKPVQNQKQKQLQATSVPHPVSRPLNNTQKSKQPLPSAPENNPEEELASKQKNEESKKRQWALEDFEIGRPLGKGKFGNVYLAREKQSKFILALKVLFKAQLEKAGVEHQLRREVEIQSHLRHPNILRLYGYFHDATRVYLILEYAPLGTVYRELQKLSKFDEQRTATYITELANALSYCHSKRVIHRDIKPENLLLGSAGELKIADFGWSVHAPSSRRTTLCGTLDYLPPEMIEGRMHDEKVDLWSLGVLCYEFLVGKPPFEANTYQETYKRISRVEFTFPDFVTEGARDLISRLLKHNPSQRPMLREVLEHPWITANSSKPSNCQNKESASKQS

| IC50 (Aurora kinase A; read-out: IC50) [µM] | IC50 (Aurora kinase A) | SMILES | GI50 (DU-145 [1]) [µM] | GI50 (HT-29 [2]) [µM] | inhibition at 10 µM (DU-145 [3]) [%] | inhibition at 10 µM (HT-29 [4]) [%] |
| --- | --- | --- | --- | --- | --- | --- |
| 86.2 | – | COc1ccc2cc(C(=O)C3CCC(C(C)C(=O)NCCC4=CCCCC4)CC3)[nH]c2c1 (stereo unspecified) | 15.9 | 9.36 | 49 | 68 |
| – | Not Active | CCCOc1ccc(CNC(=O)c2[nH]c3cc(C)ccc3c2Sc2ccccc2)cc1 | 26 | 5.36 | 34 | 64 |
| 5.09 | – | COc1ccc(C(=O)Nc2ccccc2C(=O)NC(Cc2ccc(O)cc2)C(=O)Nc2ccc(C)cc2C)cc1 (stereo unspecified) | 2.73 | 5.23 | 90 | 73 |
| 11.9 | – | Cc1ccc(NC(=O)C(Cc2ccc(O)cc2)NC(=O)c2ccccc2N)cc1 (stereo unspecified) | 3.93 | 9.48 | 87 | 54 |
| – | Not Active | COc1ccc(N(CC(=O)Nc2cc(Cl)ccc2C)S(=O)(=O)c2c(C)n[nH]c2C)cc1 | 5.98 | 3.98 | 74 | 87 |
| > 100 | – | COc1ccc2sc(SCC(=O)Nc3ncc(Br)s3)nc2c1 | 17 | 2.04 | 49 | 89 |
| – | Not Active | CCOc1ccc(NC(=S)N(CCN(CC)CC)Cc2cc3cc4c(cc3[nH]c2=O)OCCO4)cc1 [ASN03776845] | 14.1 | 6.33 | 49 | 78 |
| 18.4 | – | COc1ccc(OCC(O)Cn2c(N/N=C/c3ccccc3O)nc3c2c(=O)[nH]c(=O)n3C)cc1 (stereo unspecified) | 27.7 | 7.94 | 23 | 58 |
| – | Not Active | Cc1ccc(Nc2cc(Nc3ccc(NS(=O)(=O)c4ccccc4F)cc3)nc(C)n2)cc1 | 23.4 | 5.12 | 38 | 83 |
| 0.06 | – | Cc1ccc(-c2nnc(Nc3ccc(Oc4ncccc4-c4c[nH]nc4N)cc3)c3ccccc23)cc1 | – | – | – | – |
| 98.7 | – | CCOc1ccc(NC(=O)Cn2c(Nc3ccc(OCC)cc3)nc3c2c(=O)[nH]c(=O)n3C)cc1 | > 100 | 7.91 | 57 | 62 |
| > 100 | – | COc1ccc(-c2cc(C(=O)Nc3ccc(C)cc3C)c3c(-c4ccccc4)[nH]nc3n2)cc1OC | 2.06 | 1.65 | 92 | 91 |
| > 100 | – | CC(=O)Nc1cccc(NC(=O)C(=O)NCCc2sc(-c3ccc(Cl)cc3)nc2C)c1 | > 100 | 16.5 | 32 | 54 |
| – | Not Active | CCOc1ccc2cc(CNc3cc(OC)cc(OC)c3)c(=O)[nH]c2c1 [ASN07410292] | 5.81 | 3.64 | 80 | 88 |
| 16.7 | – | CCOc1ccc2nc(Nc3nc(O)c4ccccc4n3)nc(C)c2c1 | 36.9 | 29.1 | 80 | 89 |
| – | Not Active | CCOc1ccc2nc(NC3=NC(=O)CC(c4ccc(OC)cc4)N3)nc(C)c2c1 (stereo unspecified) | 4.26 | 7.08 | 84 | 85 |
